# The source made the active and inactive calls.
# Columns and labels:
# Streptokinase A = target: T1, Streptokinase A (Streptococcus pyogenes serotype M1, UniProt P10520); assay: viability-normalized secreted streptokinase activity reduction – plasminogen activation absorbance, OD405, dose response (AID 1914); format: functional, Streptococcus pyogenes M1 GAS;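 also: secreted streptokinase activity via plasminogen activation per viability signal from cell pellet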
# T1 sequence (P10520 whole entry): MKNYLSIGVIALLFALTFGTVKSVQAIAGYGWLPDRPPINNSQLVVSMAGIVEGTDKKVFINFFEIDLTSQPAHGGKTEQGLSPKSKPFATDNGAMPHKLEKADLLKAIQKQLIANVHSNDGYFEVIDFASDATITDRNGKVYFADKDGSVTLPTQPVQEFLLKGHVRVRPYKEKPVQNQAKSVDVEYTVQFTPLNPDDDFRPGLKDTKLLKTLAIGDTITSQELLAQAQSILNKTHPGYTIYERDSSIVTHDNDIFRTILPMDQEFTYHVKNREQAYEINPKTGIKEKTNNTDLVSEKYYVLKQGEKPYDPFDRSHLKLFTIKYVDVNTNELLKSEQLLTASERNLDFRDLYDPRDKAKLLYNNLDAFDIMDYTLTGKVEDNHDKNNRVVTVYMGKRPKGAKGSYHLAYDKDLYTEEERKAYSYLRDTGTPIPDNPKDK
# [1] = target: Runt-related transcription factor 1/Core-binding factor subunit beta (Homo sapiens, UniProt Q01196+Q13951); assay: Runt domain/CBFb-SMMHC interaction disruptors – biochemical, TR-FRET (AID 1438); format: protein assay
# [2] = target: Platelet-derived growth factor receptor beta (Homo sapiens, UniProt P09619); format: functional;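 also: value comes from a kinome panel, with PDGFRB tested as one panel member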
# [3] = target: Tyrosine-protein kinase Srms (Homo sapiens, UniProt Q9H3Y6); format: functional;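 also: SRMS measured as one member of a kinome-wide kinase profiling panel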
# Sequence of Tyrosine-protein kinase Srms (Q9H3Y6 whole entry): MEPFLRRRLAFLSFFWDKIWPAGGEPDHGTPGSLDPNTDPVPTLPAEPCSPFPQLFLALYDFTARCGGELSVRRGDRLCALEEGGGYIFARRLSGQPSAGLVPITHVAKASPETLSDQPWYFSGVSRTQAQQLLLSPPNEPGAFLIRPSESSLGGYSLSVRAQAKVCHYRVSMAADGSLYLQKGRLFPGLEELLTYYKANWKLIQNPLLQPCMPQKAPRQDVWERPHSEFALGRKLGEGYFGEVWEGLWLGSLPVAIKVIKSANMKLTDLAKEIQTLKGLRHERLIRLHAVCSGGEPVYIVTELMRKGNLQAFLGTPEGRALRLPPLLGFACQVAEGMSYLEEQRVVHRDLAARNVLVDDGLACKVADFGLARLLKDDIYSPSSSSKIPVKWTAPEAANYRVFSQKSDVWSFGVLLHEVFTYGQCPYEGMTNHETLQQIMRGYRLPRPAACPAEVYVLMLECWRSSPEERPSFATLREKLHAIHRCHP
# Sequence of Platelet-derived growth factor receptor beta (P09619 whole entry): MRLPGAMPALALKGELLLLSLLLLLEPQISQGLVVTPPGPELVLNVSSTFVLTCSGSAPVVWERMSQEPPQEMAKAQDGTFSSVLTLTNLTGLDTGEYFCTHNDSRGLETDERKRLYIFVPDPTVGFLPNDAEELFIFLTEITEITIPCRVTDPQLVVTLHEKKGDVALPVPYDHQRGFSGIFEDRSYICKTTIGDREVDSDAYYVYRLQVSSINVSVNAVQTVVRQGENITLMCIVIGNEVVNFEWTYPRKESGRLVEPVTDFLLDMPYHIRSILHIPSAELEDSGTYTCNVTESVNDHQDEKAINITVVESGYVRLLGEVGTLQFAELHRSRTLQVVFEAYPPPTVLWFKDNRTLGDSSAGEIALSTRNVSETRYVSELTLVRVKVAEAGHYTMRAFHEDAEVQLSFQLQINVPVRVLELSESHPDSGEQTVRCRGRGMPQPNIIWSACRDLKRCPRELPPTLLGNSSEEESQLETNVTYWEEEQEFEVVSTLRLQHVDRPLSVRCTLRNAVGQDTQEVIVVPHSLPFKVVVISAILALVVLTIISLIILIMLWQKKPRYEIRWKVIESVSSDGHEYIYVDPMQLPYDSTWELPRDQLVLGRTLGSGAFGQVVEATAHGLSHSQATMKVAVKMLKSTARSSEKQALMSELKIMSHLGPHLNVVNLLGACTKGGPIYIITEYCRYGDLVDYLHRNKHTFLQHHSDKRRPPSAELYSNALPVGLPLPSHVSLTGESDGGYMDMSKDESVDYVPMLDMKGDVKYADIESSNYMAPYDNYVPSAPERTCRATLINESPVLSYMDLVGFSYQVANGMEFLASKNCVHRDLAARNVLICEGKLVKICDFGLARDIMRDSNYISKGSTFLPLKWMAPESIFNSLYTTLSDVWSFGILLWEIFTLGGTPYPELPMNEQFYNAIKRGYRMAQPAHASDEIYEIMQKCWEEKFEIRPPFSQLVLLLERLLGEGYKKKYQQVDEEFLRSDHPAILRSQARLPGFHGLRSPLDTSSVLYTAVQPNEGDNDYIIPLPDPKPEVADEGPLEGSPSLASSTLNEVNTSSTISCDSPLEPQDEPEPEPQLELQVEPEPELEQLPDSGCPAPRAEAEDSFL
# Sequence of Runt-related transcription factor 1/Core-binding factor subunit beta (Q01196 whole entry, the tested form may be a part): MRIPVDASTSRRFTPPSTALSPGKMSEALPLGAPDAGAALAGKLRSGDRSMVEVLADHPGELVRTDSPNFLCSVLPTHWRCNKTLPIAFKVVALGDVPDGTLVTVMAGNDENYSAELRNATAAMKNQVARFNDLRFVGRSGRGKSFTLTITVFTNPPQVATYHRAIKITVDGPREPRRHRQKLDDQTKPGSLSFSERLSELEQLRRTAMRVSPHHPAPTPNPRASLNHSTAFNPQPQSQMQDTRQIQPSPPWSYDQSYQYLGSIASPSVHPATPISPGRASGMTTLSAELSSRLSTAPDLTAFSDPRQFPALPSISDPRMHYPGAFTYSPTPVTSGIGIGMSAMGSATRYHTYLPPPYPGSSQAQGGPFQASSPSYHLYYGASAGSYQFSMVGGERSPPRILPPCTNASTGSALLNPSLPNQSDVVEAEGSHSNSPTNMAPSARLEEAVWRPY
# Sequence of Runt-related transcription factor 1/Core-binding factor subunit beta (Q13951 whole entry, the tested form may be a part): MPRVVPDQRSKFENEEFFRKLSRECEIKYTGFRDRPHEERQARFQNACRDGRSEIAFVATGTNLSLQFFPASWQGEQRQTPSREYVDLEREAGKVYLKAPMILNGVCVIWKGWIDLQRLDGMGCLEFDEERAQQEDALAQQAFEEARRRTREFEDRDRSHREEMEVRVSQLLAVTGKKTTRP
smiles,measurement,setting,value
CC(C)(C)c1cc[n+](C2=C([N-]S(=O)(=O)c3cccs3)C(=O)c3ccccc3C2=O)cc1,EC50,Streptokinase A,3.8 µM (active)
COc1cccc2c1NC(C(=O)O)C1CC=CC21 (centres undefined),IC50,[1],15.4 µM (active)
COC(=O)c1c(N)nc2ccccn12,Ki,[2],> 79.4 µM (inactive)
Cc1ccc(F)c(NC(=O)Nc2ccc(-c3cccc4[nH]nc(N)c34)cc2)c1 [LINIFANIB],Ki,[3],1.58 µM (active)
